The subject of one experiment is TBARS in C6 cells. Briefly: TBARS (MDA) assay, C6. The class given is cell-based, rat. The conditions noted are these: vs control. On the procedure: Determination of TBARS levels. TBARS (thiobarbituric acid reactive substances), by-products of lipid peroxidation, were analyzed by measuring the concentration of malondialdehyde (MDA). The levels of MDA were measured in cell lysates using TBARS assay (Catalog No. 10009055, Cayman Chemical, Ann Arbor, USA). The concentration of lipid peroxides was calculated as an MDA equivalent using the extinction coefficient for the MDA-TBA complex of 1.56×10^5 M−1 cm^−1 at 532 nm.

The test system of experiment [1] is SOD, CAT, GPx, GSH in C6 glioma cells. Briefly: Antioxidant marker kits (SOD, CAT, GPx, GSH), C6. The class given is cell-based, rat. The conditions noted are these: vs control. On the procedure: Antioxidant markers. […] All experiments were carried out according to the manufacturer's instructions. Three independent biological replicates were performed for each condition.

Results on 1 molecule are retold here after patent US20250275938A1, “COMPOSITIONS AND METHODS FOR TREATMENT OF CANCER” (SCIROSBIO (FZC), priority 2022, published 2025).

Each structure is given as a SMILES string.

As to `O=C(O[C@@H]1Cc2c(O)cc(O)cc2O[C@@H]1c1cc(O)c(O)c(O)c1)c1cc(O)c(O)c(O)c1` [EGCG, [(2R,3R)-5,7-dihydroxy-2-(3,4,5-trihydroxyphenyl)-3,4-dihydro-2H-chromen-3-yl] 3,4,5-trihydroxybenzoate], the TBARS levels entry in the experiment on TBARS in C6 cells was “significantly elevated”. Also, the “concentrations of antioxidant markers SOD, CAT, GPx, and GSH” value in experiment [1] is reported as “significantly enhanced”.
